This assay addresses D(4) dopamine receptor (Homo sapiens) (UniProt P21917). The experiment in a line: D4 dopamine receptor antagonists, confirmation, cell-based, human (AID 743372). Conditions: cells expressing human D4 receptor, antagonist mode.
What is called IC50 is the midpoint of a concentration-inhibition curve. Turning to `FC(F)(F)Oc1cccc(CN2CCOC(CCc3ccccc3)C2)c1` (stereo unspecified), the IC50 is 0.39 µM.
In the case of `c1ccc(CCC2CN(Cc3ccccc3)CCO2)cc1` (stereo unspecified) it was 1.48 µM; in that of `COc1ccc(CN2CCO[C@@H](CCc3ccccc3)C2)cc1`, 0.1 µM; in that of `FC(F)(F)Oc1ccc(CN2CCOC(CCc3ccccc3)C2)cc1` (stereo unspecified), 0.16 µM.
As for `Clc1ccc(CN2CCO[C@H](CCc3ccccc3)C2)cc1`, the IC50 was 0.13 µM.
The same measure for `FC(F)(F)Oc1ccc(CN2CCO[C@H](CCc3ccccc3)C2)cc1`: 0.23 µM; for `Cc1ccccc1CN1CCOC(CCc2ccccc2)C1` (stereo unspecified): 3.68 µM; for `COc1ccc(CN2CCOC(CCc3ccccc3)C2)cc1` (stereo unspecified): 0.17 µM.
Turning to `Fc1cccc(F)c1CN1CCOC(CCc2ccccc2)C1` (stereo unspecified), the IC50 was 3.88 µM.
For the compound `Clc1ccc(CN2CCOC(CCc3ccccc3)C2)cc1` (stereo unspecified), the IC50 was 0.29 µM.
Consider `Fc1ccc(CN2CCOC(CCc3ccccc3)C2)cc1` (stereo unspecified), for which the IC50 was 1.14 µM.

These data come from PubChem BioAssay AID743372 (Vanderbilt Specialized Chemistry Center, 2014).
